Assay results reported in US8067042B1 (Mutual Pharmaceutical Company, Inc., priority 2007, dated 2011).
Several values for one entry are separate records, joined by “and”; a condition that tells them apart may be missing. Equal values may be shown once. Read-outs that look alike come from different tables or passages of the source.

Columns and labels:
CYP2D6 = CYP2D6 (Homo sapiens, UniProt P10635); type: in vitro ADME; conditions: 50 μM megestrol acetate, microsomes
[1] = biological target: Human CYP2D6*1 + P450 Reductase SUPERSOMES (Homo sapiens, UniProt P10635)
Description: (§1) In this study, individual CYP isoforms expressed from human cDNA and P450 reductase cDNA were used (BD SUPERSOMES™ Enzymes, BD Biosciences Discovery Labware, Woburn, Mass.). SUPERSOMES™ are microsomes from baculovirus-infected insect cells containing singly expressed recombinant human CYP enzymes.
(§2) After a 5-minute preincubation, an appropriate amount of the appropriate buffer was added to the reaction mixtures to make the final volume of 0.5 mL. The incubations were continued for 60 minutes.
(§3) All incubation reactions were terminated by adding 0.5 mL methanol, and the samples were transferred to cryovials and stored at −70±10° C. until analysis.

[2] = biological target: T1, Human CYP1A2 + P450 Reductase SUPERSOMES (Homo sapiens, UniProt P05177)
T1 sequence (P05177 2-516 limits assumed): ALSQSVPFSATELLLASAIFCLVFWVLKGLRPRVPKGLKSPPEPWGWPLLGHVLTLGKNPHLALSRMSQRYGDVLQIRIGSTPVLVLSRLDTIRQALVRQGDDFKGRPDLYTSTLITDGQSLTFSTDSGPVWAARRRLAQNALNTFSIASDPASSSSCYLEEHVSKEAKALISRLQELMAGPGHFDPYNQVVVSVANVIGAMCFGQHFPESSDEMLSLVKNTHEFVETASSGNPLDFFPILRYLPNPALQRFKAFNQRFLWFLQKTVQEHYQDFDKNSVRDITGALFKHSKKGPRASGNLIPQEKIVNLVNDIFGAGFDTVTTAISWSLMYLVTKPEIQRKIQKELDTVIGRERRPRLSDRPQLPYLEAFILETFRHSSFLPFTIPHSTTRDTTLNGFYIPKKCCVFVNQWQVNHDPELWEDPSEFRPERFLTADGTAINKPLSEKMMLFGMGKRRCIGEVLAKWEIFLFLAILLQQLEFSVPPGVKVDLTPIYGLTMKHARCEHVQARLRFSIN
Description: as §1, §2, §3

[3] = biological target: Human CYP2E1 + P450 Reductase + Cytochrome b5 SUPERSOMES (Homo sapiens, UniProt P05181)
Description: as §1, §2, §3

[4] = biological target: T2, Human CYP2C8 + P450 Reductase + Cytochrome b5 SUPERSOMES (Homo sapiens, UniProt P10632)
T2 sequence (P10632 1-490): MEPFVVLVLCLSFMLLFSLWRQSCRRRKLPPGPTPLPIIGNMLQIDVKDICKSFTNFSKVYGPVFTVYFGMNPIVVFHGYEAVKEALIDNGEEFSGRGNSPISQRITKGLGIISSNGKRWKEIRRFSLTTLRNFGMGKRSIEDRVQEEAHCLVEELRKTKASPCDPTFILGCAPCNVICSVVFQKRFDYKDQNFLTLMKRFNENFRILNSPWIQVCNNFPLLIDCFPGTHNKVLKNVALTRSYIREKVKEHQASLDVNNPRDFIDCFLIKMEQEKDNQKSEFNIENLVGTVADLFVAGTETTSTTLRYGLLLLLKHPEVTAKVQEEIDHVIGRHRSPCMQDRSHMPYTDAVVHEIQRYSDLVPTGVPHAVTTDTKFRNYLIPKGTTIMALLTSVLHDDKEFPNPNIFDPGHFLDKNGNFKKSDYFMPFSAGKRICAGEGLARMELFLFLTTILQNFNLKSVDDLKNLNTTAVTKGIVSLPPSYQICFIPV
Description: as §1, §2, §3

[5] = 5 μM, 5 pmol enzyme, listed as megestrol acetate
[6] = 5 μM, 20 pmol enzyme, listed as megestrol acetate
[7] = 50 μM, 5 pmol enzyme, listed as megestrol acetate
[8] = 50 μM, 20 pmol enzyme, listed as megestrol acetate

Sequence of Human CYP2E1 + P450 Reductase + Cytochrome b5 SUPERSOMES (P05181 whole entry): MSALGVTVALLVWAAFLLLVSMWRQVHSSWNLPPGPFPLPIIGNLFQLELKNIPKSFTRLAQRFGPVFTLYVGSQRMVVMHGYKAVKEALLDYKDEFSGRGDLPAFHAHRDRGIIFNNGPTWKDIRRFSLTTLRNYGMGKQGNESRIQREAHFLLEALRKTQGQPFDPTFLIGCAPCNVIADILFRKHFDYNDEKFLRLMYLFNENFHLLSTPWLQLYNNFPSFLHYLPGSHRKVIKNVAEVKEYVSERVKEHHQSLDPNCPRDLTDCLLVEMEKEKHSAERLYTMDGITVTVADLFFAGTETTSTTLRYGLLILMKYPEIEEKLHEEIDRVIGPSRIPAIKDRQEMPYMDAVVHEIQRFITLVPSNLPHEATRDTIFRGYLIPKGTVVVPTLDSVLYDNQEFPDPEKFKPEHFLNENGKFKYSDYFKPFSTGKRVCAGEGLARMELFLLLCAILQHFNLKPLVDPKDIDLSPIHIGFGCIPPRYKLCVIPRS
Sequence of CYP2D6 (P10635 whole entry): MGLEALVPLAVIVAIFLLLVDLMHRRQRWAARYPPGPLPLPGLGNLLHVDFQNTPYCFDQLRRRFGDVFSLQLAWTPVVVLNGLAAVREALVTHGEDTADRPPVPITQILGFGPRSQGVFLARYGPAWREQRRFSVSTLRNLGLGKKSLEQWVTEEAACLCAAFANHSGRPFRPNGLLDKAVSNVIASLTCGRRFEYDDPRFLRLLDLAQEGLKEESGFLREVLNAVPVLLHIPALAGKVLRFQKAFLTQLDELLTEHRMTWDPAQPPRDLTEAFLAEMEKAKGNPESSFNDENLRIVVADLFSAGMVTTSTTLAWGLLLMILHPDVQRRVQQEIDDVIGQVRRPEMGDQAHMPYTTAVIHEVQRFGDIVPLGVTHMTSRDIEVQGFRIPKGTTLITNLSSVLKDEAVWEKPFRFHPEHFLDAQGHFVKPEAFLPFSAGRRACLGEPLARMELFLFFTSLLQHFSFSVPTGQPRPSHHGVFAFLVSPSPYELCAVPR

Compound: CC(=O)O[C@]1(C(C)=O)CC[C@H]2[C@@H]3C=C(C)C4=CC(=O)CC[C@]4(C)[C@H]3CC[C@@]21C [Megestrol Acetate, 17 α-acetyloxy-6-methylpregna-4,6-diene-3,20-dione]
- difference in metabolism in the presence or absence of the inhibitor (LC/MS) (CYP2D6): no significant difference in metabolism
- Individual Raw Data Observed ([1]; 5 μM, 5 pmol enzyme): 1.94 µM and 2.747 µM and 2.056 µM
- Percent of Parent Disappearance Mean ± SD ([1]; 5 μM, 5 pmol enzyme): −13.6 ± 022.0%
- Percent of Parent Disappearance Mean ± SD [1, 5]: no substrate disappearance was detected
- Individual Raw Data Observed ([1]; 5 μM, 20 pmol enzyme): 2.325 µM and 2.386 µM and 2.39 µM
- Percent of Parent Disappearance Individual ([1]; 5 μM, 20 pmol enzyme): 4.68% and 2.15% and 2.01%
- Percent of Parent Disappearance Mean ± SD ([1]; 5 μM, 20 pmol enzyme): 2.95 ± 1.50%
- Percent of Parent Disappearance Mean ± SD [1, 6]: 2.95±2.46%
- Individual Raw Data Observed ([1]; 50 μM, 5 pmol enzyme): 18.2 µM and 22.44 µM and 18.03 µM
- Percent of Parent Disappearance Individual ([1]; 50 μM, 5 pmol enzyme): −3.00% and −27.0% and −2.03%
- Percent of Parent Disappearance Mean ± SD [1, 7]: no substrate disappearance was detected
- Individual Raw Data Observed ([1]; 50 μM, 20 pmol enzyme): 12.44 µM and 13.43 µM and 12.62 µM
- Percent of Parent Disappearance Individual ([1]; 50 μM, 20 pmol enzyme): 1.88% and −5.91% and 0.449%
- Percent of Parent Disappearance Mean ± SD ([1]; 50 μM, 20 pmol enzyme): −1.19 ± 04.14%
- Percent of Parent Disappearance Mean ± SD [1, 8]: no substrate disappearance was detected
- Individual Raw Data Observed ([2]; 5 μM, 5 pmol enzyme): 2.044 µM and 2.183 µM and 2.216 µM
- Percent of Parent Disappearance Individual ([2]; 5 μM, 5 pmol enzyme): −2.76% and −9.79% and −11.4%
- Percent of Parent Disappearance Mean ± SD ([2]; 5 μM, 5 pmol enzyme): −7.99 ± 4.60%
- Percent of Parent Disappearance Mean ± SD [2, 5]: no disappearance of the substrate was detected
- Individual Raw Data Observed ([2]; 5 μM, 20 pmol enzyme): 2.309 µM and 2.295 µM and 2.254 µM
- Percent of Parent Disappearance Individual ([2]; 5 μM, 20 pmol enzyme): 5.51% and 6.07% and 7.78%
- Percent of Parent Disappearance Mean ± SD ([2]; 5 μM, 20 pmol enzyme): 6.45 ± 1.18%
- Percent of Parent Disappearance Mean ± SD [2, 6]: 6.45±1.18%
- Individual Raw Data Observed ([2]; 50 μM, 5 pmol enzyme): 20.03 μM (2×) and 19.46 μM
- Percent of Parent Disappearance Individual ([2]; 50 μM, 5 pmol enzyme): −5.05% and −5.02% and −2.05%
- Percent of Parent Disappearance Mean ± SD ([2]; 50 μM, 5 pmol enzyme): −4.04 ± 1.72%
- Percent of Parent Disappearance Mean ± SD [2, 7]: no disappearance of the substrate was detected
- Individual Raw Data Observed ([2]; 50 μM, 20 pmol enzyme): 19.6 µM and 20.86 µM and 20.65 µM
- Percent of Parent Disappearance Individual ([2]; 50 μM, 20 pmol enzyme): 11.0% and 5.29% and 6.24%
- Percent of Parent Disappearance Mean ± SD ([2]; 50 μM, 20 pmol enzyme): 7.51 ± 3.06%
- Percent of Parent Disappearance Mean ± SD [2, 8]: 7.51±3.06%
- Individual Raw Data Observed ([3]; 5 μM, 5 pmol enzyme): 2.008 µM and 2.126 µM and 2.034 µM
- Percent of Parent Disappearance Individual ([3]; 5 μM, 5 pmol enzyme): 20.4% and 15.8% and 19.4%
- Percent of Parent Disappearance Mean ± SD ([3]; 5 μM, 5 pmol enzyme): 18.5 ± 02.46%
- Percent of Parent Disappearance Mean ± SD [3, 5]: 18.5±2.46%
- Individual Raw Data Observed ([3]; 5 μM, 20 pmol enzyme): 1.473 µM and 1.491 µM and 1.693 µM
- Percent of Parent Disappearance Individual ([3]; 5 μM, 20 pmol enzyme): −1.62% and −2.86% and −16.8%
- Percent of Parent Disappearance Mean ± SD ([3]; 5 μM, 20 pmol enzyme): −7.09 ± 8.42%
- Percent of Parent Disappearance Mean ± SD [3, 6]: 7.09±8.42%
- Individual Raw Data Observed ([3]; 50 μM, 5 pmol enzyme): 21.97 µM and 17.04 µM and 17.99 µM
- Percent of Parent Disappearance Mean ± SD ([3]; 50 μM, 5 pmol enzyme): −10.5 ± 15.2%
- Percent of Parent Disappearance Mean ± SD [3, 7]: 10.5±15.2%
- Individual Raw Data Observed ([3]; 50 μM, 20 pmol enzyme): 21.04 µM and 21.41 µM and 21.74 µM
- Percent of Parent Disappearance Individual ([3]; 50 μM, 20 pmol enzyme): −1.09% and −2.83% and −4.46%
- Percent of Parent Disappearance Mean ± SD ([3]; 50 μM, 20 pmol enzyme): −2.79 ± 1.69%
- Percent of Parent Disappearance Mean ± SD [3, 8]: 2.79±1.69%
- Individual Raw Data Observed ([4]; 5 μM, 5 pmol enzyme): 2.202 µM and 3.025 µM and 2.609 µM
- Percent of Parent Disappearance Mean ± SD ([4]; 5 μM, 5 pmol enzyme): −18.0 ± 18.6%
- Percent of Parent Disappearance Mean ± SD [4, 5]: no disappearance of megestrol acetate was detected
- Individual Raw Data Observed ([4]; 5 μM, 20 pmol enzyme): 1.94 µM and 1.985 µM and 2.045 µM
- Percent of Parent Disappearance Individual ([4]; 5 μM, 20 pmol enzyme): 2.05% and −0.201% and −3.26%
- Percent of Parent Disappearance Mean ± SD ([4]; 5 μM, 20 pmol enzyme): −0.468 ± 2.66%
- Percent of Parent Disappearance Mean ± SD [4, 6]: no disappearance of megestrol acetate was detected
- Individual Raw Data Observed ([4]; 50 μM, 5 pmol enzyme): 21.4 µM and 22.9 µM and 22.7 µM
- Percent of Parent Disappearance Individual ([4]; 50 μM, 5 pmol enzyme): 1.01% and −5.95% and −5.01%
- Percent of Parent Disappearance Mean ± SD ([4]; 50 μM, 5 pmol enzyme): −3.32 ± 3.78%
- Percent of Parent Disappearance Mean ± SD [4, 7]: no disappearance of megestrol acetate was detected
- Individual Raw Data Observed ([4]; 50 μM, 20 pmol enzyme): 19.69 µM and 20.64 µM and 20.58 µM
- Percent of Parent Disappearance Individual ([4]; 50 μM, 20 pmol enzyme): −0.513% and −5.33% and −5.02%
- Percent of Parent Disappearance Mean ± SD ([4]; 50 μM, 20 pmol enzyme): −3.62 ± 2.70%
- Percent of Parent Disappearance Mean ± SD [4, 8]: no disappearance of megestrol acetate was detected
